How the values were obtained:
[1] = tested on: Puccinia recondita f. sp. tritici; experiment: Puccinia recondita f. sp. tritici / wheat / leaf disc preventative (brown rust); assay type: in vivo; details: foliar, wheat cv Kanzler leaf segments, inoculated 1 day after application, assessed 7-9 days after application, read-out: control of Puccinia recondita f. sp. tritici (percent disease control compared to untreated)
Procedure: Puccinia recondita f. sp. tritici/Wheat/Leaf Disc Preventative (Brown Rust) Wheat leaf segments cultivated variety (cv) Kanzler were placed on agar in 24-well plates and sprayed with formulated test compound diluted in water at an application rate of 200 ppm. The leaf disks were inoculated with a spore suspension of the fungus 1 day after application. The inoculated leaf segments were incubated at 19° C. and 75% relative humidity under a light regime of 12/12 h (light/dark) in a climate cabinet and the activity of a compound was assessed as percent disease control compared to untreated when an appropriate level of disease damage appears in untreated check leaf segments (7-9 days after application). […].103

[2] = tested on: Puccinia recondita f. sp. tritici; experiment: Puccinia recondita f. sp. tritici / wheat / leaf disc curative (brown rust); assay type: in vivo; details: foliar, wheat cv Kanzler leaf segments, applied 1 day after inoculation, assessed 6-8 days after application, read-out: control of Puccinia recondita f. sp. tritici (percent disease control compared to untreated)
Procedure: Puccinia recondita f. sp. tritici/Wheat/Leaf Disc Curative (Brown Rust): Wheat leaf segments cv Kanzler were placed on agar in 24-well plates. The leaf segments were inoculated with a spore suspension of the fungus. The plates were stored in darkness at 19° C. and 75% relative humidity. The formulated test compound diluted in water was applied at an application rate of 200 ppm 1 day after inoculation.

[3] = tested on: Phaeosphaeria nodorum (Septoria nodorum); experiment: Phaeosphaeria nodorum (Septoria nodorum) / wheat / leaf disc preventative (glume blotch); assay type: in vivo; details: Parastagonospora nodorum, foliar, wheat cv Kanzler leaf segments, inoculated 2 days after application, assessed 5-7 days after application, read-out: control of Phaeosphaeria nodorum (percent disease control compared to untreated)
Pyrenophora teres = Pyrenophora teres / barley / leaf disc preventative (net blotch); assay type: in vivo; details: foliar, barley cv Hasso leaf segments, inoculated two days after application, assessed 5-7 days after application, read-out: control of Pyrenophora teres (disease control compared to untreated)
[4] = tested on: Botryotinia fuckeliana (Botrytis cinerea); experiment: Botryotinia fuckeliana (Botrytis cinerea) / liquid culture (gray mould); assay type: cell-based; details: Vogels broth, 96-well plate, 24° C., 3-4 days after application, read-out: control of Botryotinia fuckeliana (inhibition of growth, photometric)
[5] = tested on: Glomerella lagenarium (Colletotrichum lagenarium); experiment: Glomerella lagenarium (Colletotrichum lagenarium) / liquid culture (anthracnose); assay type: cell-based; details: Colletotrichum orbiculare, PDB potato dextrose broth, 96-well plate, 24° C., 3-4 days after application, read-out: control of Glomerella lagenarium (inhibition of growth, photometric)
[6] = tested on: Mycosphaerella arachidis (Cercospora arachidicola); experiment: Mycosphaerella arachidis (Cercospora arachidicola) / liquid culture (early leaf spot); assay type: cell-based; details: PDB potato dextrose broth, 96-well plate, 24° C., 4-5 days after application, read-out: control of Mycosphaerella arachidis (inhibition of growth, photometric)
[7] = tested on: Mycosphaerella graminicola (Septoria tritici); experiment: Mycosphaerella graminicola (Septoria tritici) / liquid culture (Septoria blotch); assay type: cell-based; details: Zymoseptoria tritici, PDB potato dextrose broth, 96-well plate, 24° C., 4-5 days after application, read-out: control of Mycosphaerella graminicola (inhibition of growth, photometric)
Gaeumannomyces graminis = Gaeumannomyces graminis / liquid culture (take-all of cereals); assay type: cell-based; details: liquid culture of mycelial fragments, PDB potato dextrose broth, 96-well plate, 24° C., 4-5 days after application, read-out: control of Gaeumannomyces graminis (inhibition of growth, photometric)
[8] = tested on: Thanatephorus cucumeris (Rhizoctonia solani); experiment: Thanatephorus cucumeris (Rhizoctonia solani) / liquid culture (foot rot, damping-off); assay type: cell-based; details: liquid culture of mycelia fragments, PDB potato dextrose broth, 96-well plate, 24° C., 3-4 days after application, read-out: control of Thanatephorus cucumeris (inhibition of growth, photometric)
Procedure: Thanatephorus cucumeris (Rhizoctonia solani)/Liquid Culture (Foot Rot, Damping-Off): Mycelia fragments of a newly grown liquid culture of the fungus are directly mixed into nutrient broth (PDB potato dextrose broth). After placing a DMSO solution of the test compounds into a 96-well microtiter plate at an application rate of 200 ppm, the nutrient broth containing the fungal material was added. The test plates were incubated at 24° C. and the inhibition of growth was determined photometrically 3-4 days after application.

[9] = tested on: Monographella nivalis (Microdochium nivale); experiment: Monographella nivalis (Microdochium nivale) / liquid culture (foot rot cereals); assay type: cell-based; details: PDB potato dextrose broth, 96-well plate, 24° C., 4-5 days after application, read-out: control of Monographella nivalis (inhibition of growth, photometric)
Procedure: Monographella nivalis (Microdochium nivale)/Liquid Culture (Foot Rot Cereals): Conidia of the fungus from cryogenic storage were directly mixed into nutrient broth (PDB potato dextrose broth). After placing a DMSO solution of test compound into a 96-well microtiter plate at an application rate of 200 ppm, the nutrient broth containing the fungal spores was added. The test plates were incubated at 24° C. and the inhibition of growth was determined photometrically 4-5 days after application. […].103

[10] = tested on: Blumeria graminis f. sp. tritici (Erysiphe graminis f. sp. tritici); experiment: Blumeria graminis f. sp. tritici (Erysiphe graminis f. sp. tritici) / wheat / leaf disc preventative (powdery mildew on wheat); assay type: in vivo; details: foliar, wheat cv. Kanzler leaf segments, inoculated 1 day after application, assessed 6-8 days after application, read-out: control of Blumeria graminis (percent disease control compared to untreated)
[11] = tested on: Magnaporthe grisea (Pyricularia oryzae); experiment: whole plant or invertebrate; assay type: in vivo; details: foliar, read-out: control of Magnaporthe grisea (percent disease control compared to untreated)

CCC(CO/N=C(\C)c1cccc(C)n1)Cc1cccc(/C(C)=N/OC)n1 (stereo not drawn) [P.04]
≥ 80%: pest or weed control at 200 ppm [1] | pest or weed control at 200 ppm [2] | pest or weed control at 200 ppm [3] | pest or weed control at 200 ppm (Pyrenophora teres) | inhibition at 200 ppm [4] | inhibition at 200 ppm [5] | inhibition at 200 ppm [6] | inhibition at 200 ppm [7] | inhibition at 200 ppm (Gaeumannomyces graminis) | inhibition at 200 ppm [8] | inhibition at 200 ppm [9] | pest or weed control at 200 ppm [10]

CO/N=C(\C)c1cccc(CCCO/N=C(\C)c2cc(C)cc(C)n2)n1 [P.10]
≥ 80%: pest or weed control at 200 ppm [1] | pest or weed control at 200 ppm [2] | pest or weed control at 200 ppm [3] | pest or weed control at 200 ppm (Pyrenophora teres) | inhibition at 200 ppm [4] | inhibition at 200 ppm [5] | inhibition at 200 ppm [6] | inhibition at 200 ppm [7] | inhibition at 200 ppm (Gaeumannomyces graminis) | inhibition at 200 ppm [8] | inhibition at 200 ppm [9] | pest or weed control at 200 ppm [10]

CO/N=C(\C)c1cccc(CCCO/N=C(\C)c2cccc(C)n2)n1 [P.12]
≥ 80%: pest or weed control at 200 ppm [1] | pest or weed control at 200 ppm [2] | pest or weed control at 200 ppm [3] | pest or weed control at 200 ppm (Pyrenophora teres) | inhibition at 200 ppm [4] | inhibition at 200 ppm [5] | inhibition at 200 ppm [6] | inhibition at 200 ppm [7] | inhibition at 200 ppm (Gaeumannomyces graminis) | inhibition at 200 ppm [8] | inhibition at 200 ppm [9] | pest or weed control at 200 ppm [10]

CON=C(c1ccccc1)c1cccc(CCCO/N=C(\C)c2cccc(C)n2)n1 [P.24]
≥ 80%: pest or weed control at 200 ppm [1] | pest or weed control at 200 ppm [2] | pest or weed control at 200 ppm [3] | pest or weed control at 200 ppm (Pyrenophora teres) | inhibition at 200 ppm [4] | inhibition at 200 ppm [5] | inhibition at 200 ppm [6] | inhibition at 200 ppm [7] | inhibition at 200 ppm (Gaeumannomyces graminis) | inhibition at 200 ppm [8] | inhibition at 200 ppm [9] | pest or weed control at 200 ppm [10]

CO/N=C(\C)c1cccc(CCCO/N=C2\CCCc3c2nc2ncccc2c3C)n1 [P.72]
≥ 80%: pest or weed control at 200 ppm [1] | pest or weed control at 200 ppm [2] | pest or weed control at 200 ppm [3] | pest or weed control at 200 ppm (Pyrenophora teres) | inhibition at 200 ppm [4] | inhibition at 200 ppm [5] | inhibition at 200 ppm [7] | pest or weed control at 200 ppm [10] | pest or weed control at 200 ppm [11]

C=CCOCCCc1cccc(/C(C)=N/OCCCc2cccc(/C(C)=N/OC)n2)n1 [P.74]
≥ 80%: pest or weed control at 200 ppm [3] | pest or weed control at 200 ppm (Pyrenophora teres) | inhibition at 200 ppm [4] | inhibition at 200 ppm [6] | inhibition at 200 ppm [7] | inhibition at 200 ppm (Gaeumannomyces graminis) | inhibition at 200 ppm [9] | pest or weed control at 200 ppm [10] | pest or weed control at 200 ppm [11]

COCCCc1cccc(/C(C)=N/OCCCc2cccc(/C(C)=N/OC)n2)n1 [P.76]
≥ 80%: pest or weed control at 200 ppm [3] | pest or weed control at 200 ppm (Pyrenophora teres) | inhibition at 200 ppm [4] | inhibition at 200 ppm [5] | inhibition at 200 ppm [6] | inhibition at 200 ppm [7] | inhibition at 200 ppm (Gaeumannomyces graminis) | inhibition at 200 ppm [9] | pest or weed control at 200 ppm [11]

CO/N=C(\C)c1cccc(CCCO/N=C2\CCCc3c2nc2cc(OC)c(OC)cc2c3C)n1 [P.82]
≥ 80%: pest or weed control at 200 ppm [3] | pest or weed control at 200 ppm (Pyrenophora teres) | inhibition at 200 ppm [4] | inhibition at 200 ppm [5] | inhibition at 200 ppm [6] | inhibition at 200 ppm [7] | inhibition at 200 ppm [8] | inhibition at 200 ppm [9] | pest or weed control at 200 ppm [10] | pest or weed control at 200 ppm [11]

CO/N=C(\C)c1cccc(CCCO/N=C2\CCCc3c2nc2ccccc2c3C2CC2)n1 [P.97]
≥ 80%: pest or weed control at 200 ppm [1] | pest or weed control at 200 ppm [2] | pest or weed control at 200 ppm [3] | pest or weed control at 200 ppm (Pyrenophora teres) | inhibition at 200 ppm [4] | inhibition at 200 ppm [5] | inhibition at 200 ppm [6] | inhibition at 200 ppm [7] | inhibition at 200 ppm [9] | pest or weed control at 200 ppm [10] | pest or weed control at 200 ppm [11]
